In patent publication US20210163412A1, “NOVEL SULFONEUREA COMPOUNDS” (Inflazome Limited, priority 2018, published 2021) one finds IC50 data, which are given here for 38 compounds.

Assay [1] deals with T1, NLRP3 (Homo sapiens, UniProt Q96P20). Put plainly: THP-1 cells pyroptosis assay. Type of assay: cell-based. On the set-up: Seed THP-1 cells (25,000 cells/well) containing 1.0 μg/ml LPS; host or cells: THP-1 cells. The note with it: LPS 1 μg/ml, nigericin 5 μM, resazurin readout. The procedure: The cells were routinely passaged and grown to confluency (˜10^6 cells/ml). On the day of the experiment, THP-1 cells were harvested and resuspended into RPMI medium (without FBS). The cells were then counted and viability (>90%) checked by Trypan blue (Sigma #T8154). […] To this diluted cell solution was added LPS (Sigma #L4524) to give a 1 μg/ml Final Assay Concentration (FAC). 40 μl of the final preparation was aliquoted into each well of a 96-well plate. The plate thus prepared was used for compound screening.
The following method step-by-step assay was followed for compound screening. • 1. […] Incubate for 3 hrs at 37° C., 5% CO2 • 4. Add 5 μl nigericin (Sigma #N7143) (FAC 5 μM) to all wells • 5. Incubate for 1 hr at 37° C., 5% CO2 • 6. At the end of the incubation period, spin plates at 300×g for 3 mins and remove supernatant • 7. Then add 50 μl of resazurin (Sigma #R7017) (FAC 100 μM resazurin in RPMI medium without FBS) and incubate plates for a further 1-2 hrs at 37° C. and 5% CO2 • 8. […] IC50 data is fitted to a non-linear regression equation (log inhibitor vs response-variable slope 4-parameters)
On the technique in general: The colour change of resazurin is a common sign of viable cells or microbes.

For assay [2], the target named is T1, NLRP3. Put plainly: Human whole blood IL-1β release assay. Type of assay: cell-based. On the set-up: Human whole blood in Li-heparin tubes was obtained from healthy donors; from tissue; host or cells: human whole blood from healthy donors. The following applies: LPS 1 μg/ml, nigericin, IL-1β in supernatant (AlphaLisa), read-out: HWB IC50. The procedure: For systemic delivery, the ability to inhibit NLRP3 when the compounds are present within the bloodstream is of great importance. For this reason, the NLRP3 inhibitory activity of a number of compounds in human whole blood was investigated in accordance with the following protocol.
Human whole blood in Li-heparin tubes was obtained from healthy donors from a volunteer donor panel. • 1. […] Incubate for 3 hrs at 37° C., 5% CO2 • 4. Add 1 μl nigericin (Sigma #N7143) ([…]) to all wells • 5. Incubate for 1 hr at 37° C., 5% CO2 • 6. At the end of the incubation period, spin plates at 300×g for 5 mins to pellet cells and remove 20 μl of supernatant and add to 96-well v-bottom plates for IL-1β analysis (note: these plates containing the supernatants can be stored at −80° C. to be analysed at a later date) • 7. IL-1β was measured according to the manufacturer protocol (Perkin Elmer-AlphaLisa IL-1 Kit AL220F-5000) • 8. IC50 data is fitted to a non-linear regression equation (log inhibitor vs response-variable slope 4-parameters)
Background: Bead proximity is the source of the signal in Alpha formats.

T1 sequence (Q96P20 whole entry): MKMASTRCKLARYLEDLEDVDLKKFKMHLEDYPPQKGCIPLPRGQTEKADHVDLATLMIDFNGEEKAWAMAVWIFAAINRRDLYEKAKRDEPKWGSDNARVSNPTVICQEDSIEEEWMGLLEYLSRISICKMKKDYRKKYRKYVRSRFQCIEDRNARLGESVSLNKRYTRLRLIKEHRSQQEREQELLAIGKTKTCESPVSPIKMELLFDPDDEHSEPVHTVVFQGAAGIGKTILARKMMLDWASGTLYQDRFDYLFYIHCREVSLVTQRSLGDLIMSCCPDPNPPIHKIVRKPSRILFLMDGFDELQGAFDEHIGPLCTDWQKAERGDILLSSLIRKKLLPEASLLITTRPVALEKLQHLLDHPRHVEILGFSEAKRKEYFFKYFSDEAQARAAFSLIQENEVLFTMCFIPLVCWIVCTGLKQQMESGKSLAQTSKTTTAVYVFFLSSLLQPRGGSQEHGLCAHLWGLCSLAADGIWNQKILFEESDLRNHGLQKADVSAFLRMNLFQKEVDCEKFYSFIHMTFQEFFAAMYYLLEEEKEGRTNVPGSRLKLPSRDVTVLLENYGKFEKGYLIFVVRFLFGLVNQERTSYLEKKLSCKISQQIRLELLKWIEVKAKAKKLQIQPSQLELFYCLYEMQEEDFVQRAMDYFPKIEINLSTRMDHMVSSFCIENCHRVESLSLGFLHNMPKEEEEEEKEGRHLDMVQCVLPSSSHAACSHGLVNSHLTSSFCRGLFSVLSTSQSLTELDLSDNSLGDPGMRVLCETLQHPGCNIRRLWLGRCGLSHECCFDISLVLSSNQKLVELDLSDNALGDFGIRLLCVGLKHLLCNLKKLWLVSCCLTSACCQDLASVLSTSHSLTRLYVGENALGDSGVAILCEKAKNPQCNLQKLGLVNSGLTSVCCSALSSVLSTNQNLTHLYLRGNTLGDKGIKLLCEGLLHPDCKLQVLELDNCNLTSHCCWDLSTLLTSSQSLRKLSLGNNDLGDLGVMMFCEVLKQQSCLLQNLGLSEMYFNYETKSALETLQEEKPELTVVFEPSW

For `CO[C@H]1CC[C@@H](Oc2cc(-c3ccc4c(c3NC(=O)NS(C)(=O)=O)CCC4)ccn2)CC1` [Example 1, N-((5-(2-(((1s,4s)-4-Methoxycyclohexyl)oxy)pyridin-4-yl)-2,3-dihydro-1H-inden-4-yl)carbamoyl)methanesulfonamide], the IC50 (usually the point on the concentration scale where inhibition reaches its midpoint) was no more than 250 nM against NLRP3 [1] and 1000 to 2000 nM at NLRP3 [2].
Turning to `CS(=O)(=O)NC(=O)Nc1c(-c2ccnc(O[C@H]3CC[C@@](C)(O)CC3)c2)ccc2c1CCC2` [Example 4], the figures for the IC50 against NLRP3 [1] and at NLRP3 [2] were no more than 250 nM and 250 to 500 nM, respectively.
Regarding `CC1CC(Oc2cc(-c3ccc4c(c3NC(=O)NS(C)(=O)=O)CCC4)ccn2)CCO1` (stereo not shown) [Example 8], the half-inhibitory concentration (IC50) at NLRP3 [1] lay in the range of 250 to 500 nM; on NLRP3 [2], 1000 to 2000 nM.
In the case of `Cc1c(-c2ccc3c(c2NC(=O)NS(C)(=O)=O)CCC3)ccnc1OC1CCN(C)CC1` [Example 15], the half-inhibitory concentration (IC50) against NLRP3 [1] and on NLRP3 [2] was 250 to 500 nM in each case.
On to `CS(=O)(=O)NC(=O)Nc1c(-c2ccnc(OC3CCN(Cc4ccccc4)CC3)c2)ccc2c1CCC2` [Example 19], for which the values for the half-inhibitory concentration (IC50) on NLRP3 [1] and at NLRP3 [2] were no more than 250 nM and 1000 to 2000 nM, respectively.
As to `CS(=O)(=O)NC(=O)Nc1c(-c2ccnc(OC3CCN(C4CC4)CC3)c2)ccc2c1CCC2` [Example 22], the IC50 is no more than 250 nM at NLRP3 [1] and 2000 to 5000 nM at NLRP3 [2].
Turning to `CN1CCC(COc2cc(-c3ccc4c(c3NC(=O)NS(C)(=O)=O)CCC4)ccn2)CC1` [Example 27], the results for the IC50 at NLRP3 [1] and at NLRP3 [2] were 1000 to 2000 nM and 500 to 1000 nM, respectively.
For `CN(C)C1CCC(Oc2cc(-c3ccc4c(c3NC(=O)NS(C)(=O)=O)CCC4)ccn2)CC1` (stereo not shown) [Example 29], in that order: no more than 250 nM and no more than 250 nM.
In the case of `CS(=O)(=O)NC(=O)Nc1c(-c2ccnc(OC3CCOCC3)c2)ccc2c1CCC2` [Example 33], the half-inhibitory concentration (IC50) fell in the range of 250 to 500 nM against NLRP3 [1] and 1000 to 2000 nM at NLRP3 [2].
Take `CN1CCC(Oc2cc(-c3ccc4c(c3NC(=O)NS(C)(=O)=O)CCC4)ccn2)CC1` [Example 35]: the IC50 on NLRP3 [1] and on NLRP3 [2] was no more than 250 nM in each case.
For `CN1CCC(Oc2cc(-c3cc(F)cc(C4CCCCC4)c3NC(=O)NS(C)(=O)=O)ccn2)CC1` [Example 39], the concentration for half-maximal inhibition (IC50) against NLRP3 [1] is no more than 250 nM; on NLRP3 [2] it was 1000 to 2000 nM.
Take `CN1CCC(Oc2cc(-c3cc(F)cc(C4CCCC4)c3NC(=O)NS(C)(=O)=O)ccn2)CC1` [Example 41]: the IC50 against NLRP3 [1] was no more than 250 nM; at NLRP3 [2], 1000 to 2000 nM.
For the compound `CN1CCC(Oc2cc(-c3cc(F)cc(-c4ccccc4)c3NC(=O)NS(C)(=O)=O)ccn2)CC1` [Example 42], the IC50 against NLRP3 [1] and at NLRP3 [2] was 1000 to 2000 nM throughout.
As for `CC(C)c1cc(F)cc(-c2ccnc(OC3CCN(C)CC3)c2)c1NC(=O)NS(C)(=O)=O` [Example 43], the IC50 against NLRP3 [1] is 500 to 1000 nM; on NLRP3 [2] it was no more than 250 nM.
Consider `Cc1cc2c(c(NC(=O)NS(C)(=O)=O)c1-c1ccnc(O[C@H]3CC[C@H](N(C)C)CC3)c1)CCC2` [Example 46], for which the IC50 against NLRP3 [1] and on NLRP3 [2] was no more than 250 nM throughout.
Turning to `Cc1cc2c(c(NC(=O)NS(C)(=O)=O)c1-c1ccnc(OCC3CCCN(C)C3)c1)CCC2` (stereo not shown) [Example 47], the IC50 against NLRP3 [1] and on NLRP3 [2] was no more than 250 nM in each case.
Take `Cc1cc2c(c(NC(=O)NS(C)(=O)=O)c1-c1ccnc(OC3CCOC3)c1)CCC2` (stereo not shown) [Example 53]: the IC50 was no more than 250 nM against NLRP3 [1] and 250 to 500 nM on NLRP3 [2].
For `CO[C@H]1CC[C@H](Oc2cc(-c3c(C)cc4c(c3NC(=O)NS(C)(=O)=O)CCC4)ccn2)CC1` [Example 54], in that order: no more than 250 nM and 500 to 1000 nM.
The like results for `CO[C@H]1CC[C@@H](Oc2cc(-c3c(C)cc4c(c3NC(=O)NS(C)(=O)=O)CCC4)ccn2)CC1` [Example 55] were, in that order, no more than 250 nM and 500 to 1000 nM.
In the case of `C=CCN1CCC(Oc2cc(-c3ccc4c(c3NC(=O)NS(=O)(=O)CC=C)CCC4)ccn2)CC1` [Example 59, N-((5-(2-((1-Allylpiperidin-4-yl)oxy)pyridin-4-yl)-2,3-dihydro-1H-inden-4-yl)carbamoyl)prop-2-ene-1-sulfonamide], the concentration for half-maximal inhibition (IC50) against NLRP3 [1] is no more than 250 nM; on NLRP3 [2], 1000 to 2000 nM.
Turning to `CN(C)CC(C)(C)n1ccc(S(=O)(=O)NC(=O)Nc2c(-c3ccnc(OC4CC4)c3)ccc3c2CCO3)n1` [Example 64, N-((5-(2-Cyclopropoxypyridin-4-yl)-2,3-dihydrobenzofuran-4-yl)carbamoyl)-1-(1-(dimethylamino)-2-methylpropan-2-yl)-1H-pyrazole-3-sulfonamide], the figures for the IC50 against NLRP3 [1] and at NLRP3 [2] were no more than 250 nM and 250 to 500 nM, respectively.
Regarding `CC(C)(CN1CCC1)n1ccc(S(=O)(=O)NC(=O)Nc2c(-c3ccnc(OC4CC4)c3)ccc3c2CCC3)n1` [Example 65], the IC50 against NLRP3 [1] is no more than 250 nM; at NLRP3 [2], 250 to 500 nM.
On to `CN(C)CC(C)(C)n1ccc(S(=O)(=O)NC(=O)Nc2c(-c3ccnc(OC4CC4)c3)ccc3c2CCC3)n1` [Example 66], for which the half-inhibitory concentration (IC50) on NLRP3 [1] is no more than 250 nM; at NLRP3 [2], 250 to 500 nM.
The like results for `O=C(Nc1c(-c2ccnc(OC3CC3)c2)ccc2c1CCO2)NS(=O)(=O)c1ccn(C2CCC2)n1` [Example 67] were, in that order, no more than 250 nM and 500 to 1000 nM.
For the compound `CC(C)n1ccc(S(=O)(=O)NC(=O)Nc2c(-c3ccnc(OC4CCN(C)CC4)c3)ccc3c2CCC3)n1` [Example 68, i-Isopropyl-N-((5-(2-((1-methylpiperidin-4-yl)oxy)pyridin-4-yl)-2,3-dihydro-1H-inden-4-yl)carbamoyl)-1H-pyrazole-3-sulfonamide], the concentration for half-maximal inhibition (IC50) on NLRP3 [1] is no more than 250 nM; at NLRP3 [2], 250 to 500 nM.
For `CC(C)n1ccc(S(=O)(=O)NC(=O)Nc2c(-c3ccnc(C4CC4)c3)ccc3c2CCC3)n1` [Example 69], the IC50 is no more than 250 nM on NLRP3 [1] and 500 to 1000 nM at NLRP3 [2].
Take `CC(C)n1ccc(S(=O)(=O)NC(=O)Nc2c(-c3ccnc(OC4CCOC4)c3)ccc3c2CCC3)n1` (stereo not shown) [Example 70]: the 50% inhibitory concentration (IC50) was no more than 250 nM on NLRP3 [1] and 500 to 1000 nM on NLRP3 [2].
Turning to `O=C(Nc1c(-c2ccnc(OC3CC3)c2)ccc2c1CCO2)NS(=O)(=O)c1ccn(C2CC2)n1` [Example 71], the IC50 against NLRP3 [1] is no more than 250 nM; on NLRP3 [2], 500 to 1000 nM.
On to `O=C(Nc1c(-c2ccnc(OC3CC3)c2)ccc2c1CCC2)NS(=O)(=O)c1ccn(C2CC2)n1` [Example 72], for which the concentration for half-maximal inhibition (IC50) is no more than 250 nM on NLRP3 [1] and 1000 to 2000 nM at NLRP3 [2].
Turning to `CC(C)n1ccc(S(=O)(=O)NC(=O)Nc2c(-c3ccnc(OC4CCOCC4)c3)ccc3c2CCC3)n1` [Example 73], the IC50 against NLRP3 [1] is no more than 250 nM; on NLRP3 [2], 500 to 1000 nM.
For `CC(C)n1ccc(S(=O)(=O)NC(=O)Nc2c(-c3ccnc(OC4CCCOC4)c3)ccc3c2CCC3)n1` (stereo not shown) [Example 74], in that order: no more than 250 nM and 1000 to 2000 nM.
For `CC(C)n1ccc(S(=O)(=O)NC(=O)Nc2c(-c3ccnc(OC4CCC4)c3)ccc3c2CCC3)n1` [Example 75], the IC50 against NLRP3 [1] is no more than 250 nM; at NLRP3 [2], 1000 to 2000 nM.
At NLRP3 [1], `CC(C)n1ccc(S(=O)(=O)NC(=O)Nc2c(-c3ccnc(OC4CCN(C)C4)c3)ccc3c2CCC3)n1` (stereo not shown) [Example 76] had an IC50 of 500 to 1000 nM.
For `CC(C)n1ccc(S(=O)(=O)NC(=O)Nc2c(-c3ccnc(Oc4ccccc4)c3)ccc3c2CCC3)n1` [Example 77], the 50% inhibitory concentration (IC50) on NLRP3 [1] is no more than 250 nM; at NLRP3 [2] it was 5000 to 10000 nM.
For `CN1CCC(Oc2cc(-c3ccc4c(c3NC(=O)N=S(N)(=O)c3ccccc3)CCC4)ccn2)CC1` (stereo not shown) [Example 78, N′-((5-(2-((1-Methylpiperidin-4-yl)oxy)pyridin-4-yl)-2,3-dihydro-1H-inden-4-yl)carbamoyl)benzenesulfonimidamide], in that order: no more than 250 nM and 2000 to 5000 nM.
On to `Cc1cc2c(c(NC(=O)NS(=N)(=O)c3ccccc3)c1-c1ccnc(OC3CCN(C)CC3)c1)CCC2` (stereo not shown) [Example 79, N-((6-Methyl-5-(2-((1-methylpiperidin-4-yl)oxy)pyridin-4-yl)-2,3-dihydro-1H-inden-4-yl)carbamoyl)benzenesulfonimidamide], for which the figures for the half-inhibitory concentration (IC50) at NLRP3 [1] and on NLRP3 [2] were no more than 250 nM and 1000 to 2000 nM, respectively.
Compound `COc1cc(-c2cc(F)cc(C(C)C)c2NC(=O)NS(=O)(=O)c2ccn(C(C)C)n2)cc(C)n1` [comp ex 2, reference compound] yielded a half-maximal inhibitory concentration (IC50) on NLRP3 [1] of 2000 to 5000 nM.
Still for that read-out and setting: as for `CC(C)c1cc(F)cc(-c2ccnc(N(C)C)c2)c1NC(=O)NS(=O)(=O)c1ccn(C(C)C)n1` [comp ex 3, reference compound], the figure is 2000 to 5000 nM.
